PMC12661400, “Oral bioavailable ITRI-148 degrades androgen receptor variants and overcomes antiandrogen resistance in advanced prostate cancer” (Neoplasia (New York, N.Y.), 2025)
Read-outs that look alike come from different tables or passages of the source.

Columns and labels:
AR(L702H) = target: T1, AR(L702H) (Homo sapiens, UniProt P10275, L702H); assay: Degradation of ectopic Myc-tagged AR mutant in DU145 cells (western blot); format: cell-based; conditions: 10 μM, 24 hours
T1 construct: expressed in transfected cells; host or cells: DU145
T1 sequence (P10275 1-920 L702H): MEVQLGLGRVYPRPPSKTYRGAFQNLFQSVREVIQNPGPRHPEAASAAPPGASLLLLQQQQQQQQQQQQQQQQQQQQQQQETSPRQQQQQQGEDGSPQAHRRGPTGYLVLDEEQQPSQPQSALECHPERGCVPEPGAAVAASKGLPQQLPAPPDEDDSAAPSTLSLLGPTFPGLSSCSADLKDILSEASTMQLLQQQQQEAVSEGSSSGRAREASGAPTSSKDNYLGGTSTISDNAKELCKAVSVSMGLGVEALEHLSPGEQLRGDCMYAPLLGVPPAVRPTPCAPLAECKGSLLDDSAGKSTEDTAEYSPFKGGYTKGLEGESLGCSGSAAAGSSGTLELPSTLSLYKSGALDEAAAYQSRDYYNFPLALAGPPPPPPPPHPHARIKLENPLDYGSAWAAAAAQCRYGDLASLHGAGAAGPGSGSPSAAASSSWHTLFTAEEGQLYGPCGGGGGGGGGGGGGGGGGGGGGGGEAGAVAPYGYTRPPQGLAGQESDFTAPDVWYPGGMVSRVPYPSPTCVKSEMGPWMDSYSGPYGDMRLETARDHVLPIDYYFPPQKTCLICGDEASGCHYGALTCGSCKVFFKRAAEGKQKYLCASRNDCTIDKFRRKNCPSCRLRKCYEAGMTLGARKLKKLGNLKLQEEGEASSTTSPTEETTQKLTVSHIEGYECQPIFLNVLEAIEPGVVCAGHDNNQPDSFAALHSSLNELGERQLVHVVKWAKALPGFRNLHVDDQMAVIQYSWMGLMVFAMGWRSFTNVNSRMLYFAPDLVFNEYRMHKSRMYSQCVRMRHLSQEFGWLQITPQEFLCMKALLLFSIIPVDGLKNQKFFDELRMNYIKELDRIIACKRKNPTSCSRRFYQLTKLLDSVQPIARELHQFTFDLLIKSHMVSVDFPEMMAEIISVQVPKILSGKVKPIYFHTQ
Text: pLenti4/TO/Flag-AR and pLenti4/TO/Flag-AR(∆LBD) plasmids are as described previously. To generate pLenti4/TO/Flag-AR-V7 plasmid, the DNA fragment of AR-V7 was amplified from pEGFP-C1-AR V7, a gift from Michael A Mancini (Addgene plasmid # 86856), and inserted into the pLenti4/TO plasmid carrying a N-terminal Flag tag between BamH1 and XhoI. The AR(L702H) and AR(H875Y) mutants were generated by site-directed mutagenesis of pCMV-Myc-AR, which is previously constructed and described in [22]. Primers used in the cloning and mutagenesis are: […]
Cell lysis, Western blotting, and AR ubiquitination were performed as described in [17]. […]
Fig. 1 ITRI-148 induces degradation of both AR and AR-V7 proteins in CRPC cells. […] AR-V7 expression was detected using an anti-Flag antibody. […] An N-terminal AR antibody was used to detect both full-length AR and LBD-truncated variants (AR-V(ΔLBD)) in CWR22Rv1 cells, while AR-V7 was detected using an AR-V7-specific antibody. DC₅₀ values were calculated from normalized band intensities, and Dₘₐₓ represents the maximal degradation achieved at 10 μM ITRI-148. (D) Immunofluorescence staining of AR after 24 or 48 hours of ITRI-148 treatment, detected using an N-terminal AR antibody. […] Quantified AR levels are as indicated. […]

[1] = Metabolic stability in liver microsomes; format: in vitro ADME; conditions: for Remaining of intact drug (%): 1 μM, incubation up to 60 minutes; for half-life at 1 μM: pH 7.4, read-out: Plasma Stability t1/2 (microsome panel)
Method: The metabolic stability of all PROTAC compounds in the screening phase (Table 1) was evaluated using mouse liver microsomes. Incubations were performed at 37 °C in phosphate buffer (pH 7.4) containing NADPH (1 mM), 0.5 mg/mL microsomal protein and 1 μM ITRI-148 (0.25 % DMSO) for 0, 5, 20, or 30 minutes, followed by quenching with acetonitrile (1:3, v/v) for HPLC analysis. To evaluate the species-specific metabolism of ITRI-148, its stability was assessed in liver microsomes from human, dog, rat, and mouse using same incubation conditions as above, with the time extending to 0, 15, 30, 45, and 60 minutes, followed by acetonitrile quenching (1:10) and LC-MS/MS analysis.

[2] = Repeated-dose toxicity study: mortality, body weight, tolerability; format: in vivo
Method: Repeated-dose toxicity and toxicokinetic studies
Repeated-dose oral toxicity study and toxicokinetic (TK) profiling was conducted in Sprague-Dawley rats. ITRI-148 was administered once daily using oral gavage at doses of 100, 300, 600, and 1000 mg/kg/day for 7 consecutive days, followed by a 7-day recovery period. Each dose group comprised 3 animals designated for toxicokinetic (TK) analysis and 6 animals for dose-range finding (DRF) evaluation. Clinical observations, body weights, and food consumption were monitored daily throughout the dosing and recovery periods. […]
All samples were analyzed in duplicate. Hematology and serum clinical chemistry analyses were performed on Day 7 (end of dosing) and Day 14 (end of recovery). At necropsy, organ weights (including heart, liver, kidney, spleen, thymus, and adrenal glands) were recorded, and gross pathological changes were examined. All procedures were conducted in compliance with institutional animal care and use guidelines. […]
Targeting androgen receptor and the variants by an orally bioavailable
Proteolysis Targeting Chimeras compound in castration resistant prostate cancer

Q: Which “degradation of Myc-tagged AR mutant L702H” value (AR(L702H)) does the source give for `O=C1CCC(N2C(=O)c3cccc(NCC(=O)N4CCC(N5CCC(C#Cc6ccc(C7CCN(C8=Nn9c(nnc9C(F)(F)F)CC8)CC7)cc6)CC5)CC4)c3C2=O)C(=O)N1` (stereo not drawn) [ITRI-148] here?
A: degraded

Q: What about the “Remaining of intact drug (%)” value ([1]; dog liver microsomes) of the same compound?
A: 88.3 ± 4.3%

Q: And the “Remaining of intact drug (%)” value ([1]; human liver microsomes)?
A: 85.9 ± 2.2%

Q: And the half-life at 1 μM ([1]; dog liver microsomes)?
A: > 1 h

Q: What about the half-life at 1 μM ([1]; human liver microsomes) of the same compound?
A: > 1 h

Q: And the half-life at 1 μM ([1]; rat liver microsomes)?
A: > 1 h

Q: And the “Remaining of intact drug (%)” value ([1]; rat liver microsomes)?
A: 75.3 ± 1.2%

Q: And the “margin of maximum rat dose (1000 mg/kg) over the efficacious dose used in xenograft model” value ([2]; rat, in vivo)?
A: > 10 fold

Q: And the body weight loss ([2]; rats, PO 100-1000 mg/kg/day, any treatment group)?
A: No animal exhibited >10% weight loss in any treatment group
